Assay results: patent publication US4393228A, “Epoxysuccinic acid derivatives” (Taisho Pharmaceutical Co., Ltd., priority 1977, dated 1983)

Target: T1, papain (Carica papaya, UniProt P00784)
T1 construct: purchased Sigma Chem. Co
T1 sequence (P00784 134-345): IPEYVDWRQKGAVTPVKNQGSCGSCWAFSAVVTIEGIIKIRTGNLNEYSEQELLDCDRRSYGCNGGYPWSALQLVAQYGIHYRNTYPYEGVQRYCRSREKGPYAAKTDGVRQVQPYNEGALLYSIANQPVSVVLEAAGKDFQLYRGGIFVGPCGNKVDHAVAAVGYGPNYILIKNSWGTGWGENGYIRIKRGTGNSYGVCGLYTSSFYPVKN
Assay: Papain inhibitory activity (milk casein digestion)
Type: biochemical
Conditions: papain 80 μg/ml 0.5 ml, cysteine, pH 6.8, 1% milk casein, 40° C., 10 minutes
Description: Papain inhibitory activity of the compounds of this invention was assayed as follows: To 0.5 ml of a solution of papain (80 μg/ml, Sigma Chem. Co., 2x cry.), were added 0.25 ml of 40 mM cysteine dissolved in 20 mM disodium ethylenediamine tetraacetic acid solution adjusted pH to 6.8 with sodium hydroxide and 0.25 ml of 33 mM phosphate buffer (pH 6.8) with or without inhibitor. After incubation at 40° C. for 15 minutes, the resulting mixture was added to 5 ml of 1% milk casein solution in the same buffer as described above, and further incubated at 40° C. for 10 minutes. Then the mixture was mixed with 5 ml of 0.44 M trichloroacetic acid solution and followed by filtration with a sheet of Toyo filter paper No. 4. The extinction of the filtrate was read at 280 nm. The percent inhibition was calculated from the formula, 100 x (B-A)/B; wherein B stands for the absorbance without inhibitor and A for the absorbance with inhibitor. The compound Nos. in Table 1 are as defined in Examples as described hereinafter.

Row | Structure (SMILES) | ID50 (amount of inhibitor for 50% inhibition)
1 | C[C@H]1CCCC[C@H]1OC(=O)[C@@H]1O[C@H]1C(=O)O[C@@H]1CCCC[C@@H]1C (relative stereo) [EP-3, di-2'-cis-methylcyclohexyl epoxysuccinate] | 2.12 γ
2 | C[C@H]1CCCC[C@H]1OC(=O)[C@@H]1O[C@H]1C(=O)O (relative stereo) [EP-4, 2'-cis-methylcyclohexyl potassium epoxysuccinate] | 0.09 γ
3 | C[C@@H]1CCCC[C@H]1OC(=O)[C@@H]1O[C@H]1C(=O)O[C@@H]1CCCC[C@H]1C (relative stereo) [EP-5, di-2'-trans-methylcyclohexyl epoxysuccinate] | 2.36 γ
4 | C[C@@H]1CCCC[C@H]1OC(=O)[C@@H]1O[C@H]1C(=O)O (relative stereo) [EP-6, 2'-trans-methylcyclohexyl potassium epoxysuccinate] | 0.09 γ
5 | O=C(O[C@@H]1CCCC[C@H]1Cl)[C@@H]1O[C@H]1C(=O)O[C@@H]1CCCC[C@H]1Cl (relative stereo) [EP-7, di-2'-trans-chlorocyclohexyl epoxysuccinate] | 2.25 γ
6 | O=C(O)[C@@H]1O[C@H]1C(=O)O[C@@H]1CCCC[C@H]1Cl (relative stereo) [EP-8, 2'-trans-chlorocyclohexyl potassium epoxysuccinate] | 0.07 γ
7 | C[C@H]1CC[C@H](OC(=O)[C@@H]2O[C@H]2C(=O)O[C@H]2CC[C@H](C)CC2)CC1 (relative stereo) [EP-15, di-4'-trans-methylcyclohexyl epoxysuccinate] | 1.69 γ
8 | C[C@H]1CC[C@H](OC(=O)[C@@H]2O[C@H]2C(=O)O)CC1 (relative stereo) [EP-16, 4'-trans-methylcyclohexyl potassium epoxysuccinate] | 0.08 γ
9 | C[C@H]1CC[C@@H](OC(=O)[C@@H]2O[C@H]2C(=O)O)CC1 (relative stereo) [EP-18, 4'-cis-methylcyclohexyl potassium epoxysuccinate] | 0.08 γ
10 | O=C(O[C@H]1CC[C@H](Cl)CC1)[C@@H]1O[C@H]1C(=O)O[C@H]1CC[C@H](Cl)CC1 (relative stereo) [EP-19, di-4'-trans-chlorocyclohexyl epoxysuccinate] | 2.01 γ
11 | O=C(O)[C@@H]1O[C@H]1C(=O)O[C@H]1CC[C@H](Cl)CC1 (relative stereo) [EP-20, 4'-trans-chlorocyclohexyl potassium epoxysuccinate] | 0.06 γ
12 | O=C(OC1CC1)[C@@H]1O[C@H]1C(=O)OC1CC1 (relative stereo) [EP-27, dicyclopropyl epoxysuccinate] | 20.00 γ
13 | O=C(O)[C@@H]1O[C@H]1C(=O)OC1CC1 (relative stereo) [EP-28, cyclopropyl potassium epoxysuccinate] | 0.80 γ
14 | O=C(O[C@@H]1CCC[C@H]1Br)[C@@H]1O[C@H]1C(=O)O[C@@H]1CCC[C@H]1Br (relative stereo) [EP-33, di-2'-trans-bromocyclopentylepoxysuccinate] | 3.20 γ
15 | O=C(O)[C@@H]1O[C@H]1C(=O)O[C@@H]1CCC[C@H]1Br (relative stereo) [EP-34, 2'-trans-bromocyclopentyl potassium epoxysuccinate] | 0.07 γ
16 | O=C(OC1CCCCCCC1)[C@@H]1O[C@H]1C(=O)OC1CCCCCCC1 (relative stereo) [EP-35, dicyclooctyl epoxysuccinate] | 0.98 γ
17 | O=C(O)[C@@H]1O[C@H]1C(=O)OC1CCCCCCC1 (relative stereo) [EP-36, cyclooctyl potassium epoxysuccinate] | 0.07 γ

Row | Structure (SMILES) | ID50 (amount of inhibitor for 50% inhibition)
18 | O=C(OC1C2CC3CC(C2)CC1C3)[C@@H]1O[C@H]1C(=O)OC1C2CC3CC(C2)CC1C3 (relative stereo) [EP-37, di-2-adamantyl epoxysuccinate] | 0.22 γ
19 | O=C(O)[C@@H]1O[C@H]1C(=O)OC1C2CC3CC(C2)CC1C3 (relative stereo) [EP-38, 2-adamantyl potassium epoxysuccinate] | 0.06 γ
20 | O=C(OCC1CC1)[C@@H]1O[C@H]1C(=O)OCC1CC1 (relative stereo) [EP-39, dicyclopropanemethyl epoxysuccinate] | 4.39 γ
21 | O=C(O)[C@@H]1O[C@H]1C(=O)OCC1CC1 (relative stereo) [EP-40, cyclopropanemethyl potassium epoxysuccinate] | 0.34 γ
22 | O=C(OCC1CCCCC1)[C@@H]1O[C@H]1C(=O)OCC1CCCCC1 (relative stereo) [EP-41, dicyclohexanemethyl epoxysuccinate] | 0.27 γ
23 | O=C(O)[C@@H]1O[C@H]1C(=O)OCC1CCCCC1 (relative stereo) [EP-42, cyclohexanemethyl potassium epoxysuccinate] | 0.06 γ
24 | O=C(OCC1CCCC1)[C@@H]1O[C@H]1C(=O)OCC1CCCC1 (relative stereo) [EP-43, dicyclopentanemethyl epoxysuccinate] | 0.45 γ
25 | O=C(O)[C@@H]1O[C@H]1C(=O)OCC1CCCC1 (relative stereo) [EP-44, cyclopentanemethyl potassium epoxysuccinate] | 0.07 γ
26 | O=C(OCC12CC3CC(CC(C3)C1)C2)[C@@H]1O[C@H]1C(=O)OCC12CC3CC(CC(C3)C1)C2 (relative stereo) [EP-47, di-1-adamantanemethyl epoxysuccinate] | 0.25 γ
27 | O=C(O)[C@@H]1O[C@H]1C(=O)OCC12CC3CC(CC(C3)C1)C2 (relative stereo) [EP-48, 1-adamantanemethyl potassium epoxysuccinate] | 0.08 γ
28 | O=C(OCCC12CC3CC(CC(C3)C1)C2)[C@@H]1O[C@H]1C(=O)OCCC12CC3CC(CC(C3)C1)C2 (relative stereo) [EP-49, di-2-(1-adamantane)ethyl epoxysuccinate] | 0.85 γ
29 | O=C(O)[C@@H]1O[C@H]1C(=O)OCCC12CC3CC(CC(C3)C1)C2 (relative stereo) [EP-50, 2-(1-adamantane)ethyl potassium epoxysuccinate] | 0.09 γ
30 | O=C(OC1CC2CCC1CC2)[C@@H]1O[C@H]1C(=O)OC1CC2CCC1CC2 (relative stereo) [EP-51, dibicyclo [2,2,2] octyl epoxysuccinate] | 0.30 γ
31 | O=C(O)[C@@H]1O[C@H]1C(=O)OC1CC2CCC1CC2 (relative stereo) [EP-52, bicyclo [2,2,2] octyl potassium epoxysuccinate] | 0.07 γ
32 | O=C(OCCC1CCCC1)[C@@H]1O[C@H]1C(=O)OCCC1CCCC1 (relative stereo) [EP-59, di-2-cyclopentaneethyl epoxysuccinate] | 0.18 γ
33 | O=C(O)[C@@H]1O[C@H]1C(=O)OCCC1CCCC1 (relative stereo) [EP-60, 2-cyclopentaneethylpotassium epoxysuccinate] | 0.10 γ
